As usually defined, the IC50 is the point on the concentration scale where inhibition reaches its midpoint. A low value points to greater potency. What is called MIC is the least concentration at which growth counts as inhibited. The low end stands for greater potency, the high end for weaker potency.

Eight molecules from US20030226169A1, “DNA sequences encoding antifungal proteins” (priority 1995, published 2003) can be followed below.

In brackets after ≈: the same amount, converted by molar mass. Non-standard residues stand in square brackets, D forms with d. Residues, ends and D or L forms follow the SMILES beside them. Abu = CC[C@H](N)C(=O)O

The test system of the experiment is Fusarium culmorum (IMI 180420). Nature of the experiment: Antifungal growth inhibition microplate assay (photospectrometry). It is filed as cell-based. The conditions noted are these: for IC50 SMF + pH5 / IC50 SMF + pH7 / IC50 1/2 PDB: duplo; for IC50 1/2 PDB: 2 × 10^4 spores/ml. How it is done:
The following fungal strains were used: Alternaria brassicicola (MUCL 20297), Ascophyta pisi (MUCL 30164), Botrytis cinerea (MUCL 30158), Fusarium culmorum (IMI 180420) and Verticillium dahliae (MUCL 19210).
Fungi were grown on six cereal agar plates at room temperature and under white fluorescent light except for F culmorum and V dahliae which were grown in the dark. The duration of the spore harvest varied between 10 and 25 days depending on the strain. Spores were collected as follows. Five to ten ml of sterile milli-Q water was poured into each dish and the surface of the agar was rubbed with a sterile spatula to obtain a suspension containing mycelium and spores. This suspension was filtered through a sterile glasswool-plugged funnel and the filtrate containing the spores was collected in a sterile polypropylene centrifuge tube. The A brassicicola spores were suspended in sterile 0.1 Tween 20 (Merk, 822184) due to their hydrophobic nature. The spore suspensions were then washed twice by centrifugation at 2,400×g for 15 minutes and resuspended in a small volume of steril milli-Q water. The spore density was determined in a counting chamber and then adjusted to 4×10^7 spores per ml. Aliquots of the spore suspension were transferred to sterile microtubes and an equal volume of sterile 50% glycerol (Merck, 4091) was added to each tube so that a final spore suspension of 2×10^7 spores per ml in 25% glycerol was obtained. After careful mixing of the stock, the spore suspension was transferred in 100 μl aliquots to sterile microtubes and stored at −80° C.
Antifungal activity was measured by photospectrometry as described by Broekaert et al, (1990, FEMS Microbiol Lett, 69:55-60). Tests were performed by adding 20 μl of test solution and 80 μl of a fungal spore suspension (2×10^4 spores/ml) per well in a sterile flat-bottom 96-well microtiterplate. The spore suspension was prepared by diluting the stock spore suspension ([…] in 25% glycerol) 1:1000 in half-strength potato dextrose broth. A positive growth control consisting of eight wells containing 20 μl of sterile milli-Q water and 80 μl of the fungal spore suspension was included in each test. The microtiterplates were incubated (with the lid on) in an aerated place at room temperature and under conditions of darkness for all test organisms.
After 30 minutes of incubation (when the spores are settled on the well bottom) the optical density was measured in a microplate reader (Bio Rad 3550-UV) at 595 nm. Incubation of the microtiterplates continued until the optical density of the control microculture was between 0.250 and 0.500, which took approximately 72 hours (96 hours for V dahliae). Percentage of growth inhibition (% GI) was estimated as 100 times the ratio of the corrected absorbance of the control microculture minus the corrected absorbance of the test microculture over the corrected absorbance of the control microculture at 595 nm. The corrected absorbance values equal the absorbance at 595 nm of the culture measured after 72 or 96 hours minus the absorbance at 595 nm measured after 30 minutes.
% GI=[(Acontrol−Atest/Acontrol]×100
where Acontrol=(A72/96h−A30min)control
The IC50 value is defined as the concentration that gives a 50% growth inhibition after 72 or 96 hours of incubation. The minimum inhibitory concentration (MIC) corresponds to the minimum concentration that gives 100% growth inhibition after 72 or 96 hours incubation.

The mark [1] stands for this setting: Table 3 / FIG. 6: Rs-AFP2-based 9-mer split peptides, ½ PDB, the source numbers peptides by N-terminal amino acid.
The mark [2] stands for this setting: Table 3: Rs-AFP2-based 9-mer split peptides, ½ PDB, duplicate.
[3] abbreviates: Table 14: 18-, 19-, 20-mer peptides with C-terminal Phe49.
Setting [4] is: Table 10: medium 1/16 PDB, one test, fungus not named in Example 7.
[5] abbreviates: Table 10: medium ½ PDB, one test, fungus not named in Example 7.
[6] abbreviates: Table 13: linear β2-β3 loop MPS peptides.
[7] abbreviates: Table 4 / FIG. 6: Rs-AFP2-based 12-mer split peptides, ½ PDB, the source numbers peptides by N-terminal amino acid.
The mark [8] stands for this setting: Table 4: Rs-AFP2-based 12-mer split peptides, ½ PDB, triplicate.

Regarding Ac-LEKARHGSC-NH2 [compound 74], under setting [1], the IC50 was found to be 270 µg/mL. This molecule returned an MIC under setting [2] of 400 µg/mL. The “F CULMORUM IC” value (Table 6 / FIG. 8: Rs-AFP1-based 9-mer split peptides, ½ PDB, the source numbers peptides by N-terminal amino acid) was determined as 370 µg/mL. Besides, the “F CULMORUM MIC” value (Table 6: Rs-AFP1-based 9-mer split peptides, ½ PDB) is >400 µg/mL.
Take `CC[C@H](NC(=O)[C@H](CO)NC(=O)CNC(=O)[C@H](Cc1c[nH]cn1)NC(=O)[C@H](CCCNC(=N)N)NC(=O)[C@H](C)NC(C)=O)C(=O)N[C@@H](CC(N)=O)C(=O)N[C@@H](Cc1ccc(O)cc1)C(=O)N[C@H](C(=O)N[C@@H](Cc1ccccc1)C(=O)N1CCC[C@H]1C(=O)N[C@@H](C)C(=O)N[C@@H](Cc1c[nH]cn1)C(=O)N[C@@H](CCCCN)C(=O)N[C@@H](CC)C(=O)N[C@H](C(=O)N[C@@H](CC)C(=O)N[C@@H](Cc1ccc(O)cc1)C(=O)N[C@@H](Cc1ccccc1)C(N)=O)[C@@H](C)CC)C(C)C` [Peptide 001, ARHGSBNYVFPAHKBIBYF] (Ac-ARHGS[Abu]NYVFPAHK[Abu]I[Abu]YF-NH2): under setting [3], the “IC50 SMF + pH5” value is reported as 102 ± 2 μg/ml and the “IC50 SMF + pH7” value stood at 159 ± 5 μg/ml. For the same molecule, for the setting “Table 14: 18-, 19-, 20-mer peptides with C-terminal Phe49, peptides single experiment”, the “IC50 ½ PDB” value was 5.6 µg/mL (≈ 2.54 µM).
With `CC[C@H](NC(=O)[C@H](CO)NC(=O)CNC(=O)[C@H](Cc1c[nH]cn1)NC(=O)[C@H](CCCNC(=N)N)NC(=O)[C@H](C)NC(C)=O)C(=O)N[C@@H](CC(N)=O)C(=O)N[C@@H](Cc1ccc(O)cc1)C(=O)N[C@H](C(=O)N[C@@H](Cc1ccccc1)C(=O)N1CCC[C@H]1C(=O)N[C@@H](C)C(=O)N[C@@H](Cc1c[nH]cn1)C(=O)N[C@@H](CCCCN)C(=O)N[C@@H](CC)C(=O)N[C@H](C(=O)N[C@@H](CC)C(=O)N[C@@H](Cc1ccc(O)cc1)C(=O)N[C@@H](Cc1ccccc1)C(N)=O)[C@@H](C)CC)C(C)C` [Peptide G2, ARHGSBNYVFPAHKBIBYF] (Ac-ARHGS[Abu]NYVFPAHK[Abu]I[Abu]YF-NH2), the “antifungal activity compared with peptide G1 (and G2), in words” value (19-mer peptides, Example 7) is “does not affect antifungal activity”. Also, under setting [4], the IC50 worked out at 10 µg/mL (≈ 4.54 µM) and the MIC was 12.5 µg/mL (≈ 5.67 µM). Under setting [5], this molecule registered an IC50 of 17 µg/mL (≈ 7.71 µM) and an MIC of 25 µg/mL (≈ 11.3 µM). Further, the “IC50 1/2 PDB” value under setting [6] was 16.0 ± 1.2 µg/mL (≈ 7.26 µM). Also, the “IC50 SMF + pH5” value (Table 13: linear β2-β3 loop MPS peptides, SMF+ (1 mM Ca2+, 50 mM K+) pH5) turned out to be 50.0 ± 6.0 μg/ml. For the same molecule, for the setting “Table 13: linear β2-β3 loop MPS peptides, SMF+ (1 mM Ca2+, 50 mM K+) pH7”, the “IC50 SMF + pH7” value was >400 μg/ml.
In turn, `CC[C@H](C)[C@H](NC(=O)[C@H](CS)NC(=O)[C@H](CCC(N)=O)NC(=O)[C@H](CC(N)=O)NC(=O)[C@H](CCCCN)NC(=O)[C@H](CS)NC(=O)[C@H](C)NC(=O)[C@H](CC(N)=O)NC(=O)[C@H](CC(N)=O)NC(=O)[C@H](CC(N)=O)NC(C)=O)C(=O)N[C@@H](CCCNC(=N)N)C(=O)N[C@@H](CC(C)C)C(N)=O` [compound 106] (Ac-NNNACKNQCIRL-NH2) returned an IC50 under setting [7] of 116 µg/mL (≈ 81 µM). Moreover, the minimum inhibitory concentration (MIC) under setting [8] amounted to 150 µg/mL (≈ 105 µM).
Ac-QCIRLEKAR-NH2 [compound 70] yielded an IC50 under setting [1] of 78 µg/mL. The same molecule gave an MIC under setting [2] of 100 µg/mL.
Regarding `CC[C@H](C)[C@H](NC(=O)[C@H](CS)NC(=O)[C@H](CCCCN)NC(=O)[C@H](Cc1c[nH]cn1)NC(=O)[C@H](C)NC(=O)[C@@H]1CCCN1C(=O)[C@H](Cc1ccccc1)NC(=O)[C@@H](NC(=O)[C@H](Cc1ccc(O)cc1)NC(=O)[C@H](CC(N)=O)NC(=O)[C@H](CS)NC(=O)[C@H](CO)NC(=O)CNC(=O)[C@H](Cc1c[nH]cn1)NC(=O)[C@H](CCCNC(=N)N)NC(=O)[C@H](C)NC(C)=O)C(C)C)C(=O)N[C@@H](CS)C(=O)N[C@@H](Cc1ccc(O)cc1)C(=O)N[C@@H](Cc1ccccc1)C(N)=O` [Peptide G1, ARHGSCNYVFPAHKCICYF] (Ac-ARHGSCNYVFPAHKCICYF-NH2), the “IC50 1/2 PDB” value under setting [6] was “ARHGSCNYVFPAHKCICYF 17.6 ± 1.1 μg/ml”.
In the case of `CC[C@H](C)[C@H](NC(=O)[C@H](CS)NC(=O)[C@H](CCC(N)=O)NC(=O)[C@H](CC(N)=O)NC(=O)[C@H](CCCCN)NC(=O)[C@H](CS)NC(=O)[C@H](C)NC(=O)[C@H](CC(N)=O)NC(C)=O)C(=O)N[C@@H](CCCNC(=N)N)C(N)=O` [compound 65] (Ac-NACKNQCIR-NH2), under setting [1], the concentration for half-maximal inhibition (IC50) is 144 µg/mL (≈ 132 µM). The same molecule returned an MIC under setting [2] of 200 µg/mL (≈ 183 µM).
Ac-IRLEKARHGSCN-NH2 [compound 115] displayed an IC50 under setting [7] of 203 µg/mL. Moreover, the minimum inhibitory concentration (MIC) under setting [8] amounted to 300 µg/mL.
